Measured values from ChEMBL document CHEMBL3112509, “Synthesis and antimicrobial activity of (1,4-phenylene)bis(arylsulfonylpyrazoles and isoxazoles)” (2014).
In brackets after ≈: the same amount, converted by molar mass. Activity calls are given as the source filed them. No cut-off for these calls is given here.

Columns and labels:
Type in all cases: functional
Klebsiella pneumoniae [1] = experiment: Antibacterial activity against Klebsiella pneumoniae at 50 ug/well after 24 hrs by agar well diffusion method; settings: for zone of inhibition at 50 µg/disc: read-out: DIZ
Aspergillus niger [2] = experiment: Antifungal activity against Aspergillus niger at 50 ug/well after 48 hrs by agar well diffusion method; settings: read-out: DIZ
Bacillus subtilis [3] = experiment: Antibacterial activity against Bacillus subtilis after 24 hrs
Pseudomonas aeruginosa [4] = experiment: Antibacterial activity against Pseudomonas aeruginosa at 50 ug/well after 24 hrs by agar well diffusion method; settings: for zone of inhibition at 50 µg/disc: read-out: DIZ
Aspergillus niger [5] = experiment: Antifungal activity against Aspergillus niger after 48 hrs by broth dilution test
Staphylococcus aureus [6] = experiment: Antibacterial activity against Staphylococcus aureus after 24 hrs by broth dilution test
Bacillus subtilis [7] = experiment: Antibacterial activity against Bacillus subtilis at 50 ug/well after 24 hrs by agar well diffusion method; settings: for zone of inhibition at 50 µg/disc: read-out: DIZ
Penicillium chrysogenum [8] = experiment: Antifungal activity against Penicillium chrysogenum after 48 hrs
Pseudomonas aeruginosa [9] = experiment: Antibacterial activity against Pseudomonas aeruginosa after 24 hrs by broth dilution test
Staphylococcus aureus [10] = experiment: Antibacterial activity against Staphylococcus aureus at 100 ug/well after 24 hrs by agar well diffusion method; settings: for zone of inhibition at 100 µg/disc: read-out: DIZ
Penicillium chrysogenum [11] = experiment: Antifungal activity against Penicillium chrysogenum after 48 hrs by broth dilution test
Klebsiella pneumoniae [12] = experiment: Antibacterial activity against Klebsiella pneumoniae at 100 ug/well after 24 hrs by agar well diffusion method; settings: for zone of inhibition at 100 µg/disc: read-out: DIZ
Klebsiella pneumoniae [13] = experiment: Antibacterial activity against Klebsiella pneumoniae after 24 hrs by broth dilution test
Staphylococcus aureus [14] = experiment: Antibacterial activity against Staphylococcus aureus after 24 hrs
Aspergillus niger [15] = experiment: Antifungal activity against Aspergillus niger after 48 hrs
Penicillium chrysogenum [16] = experiment: Antifungal activity against Penicillium chrysogenum at 50 ug/well after 48 hrs by agar well diffusion method; settings: read-out: DIZ
Bacillus subtilis [17] = experiment: Antibacterial activity against Bacillus subtilis after 24 hrs by broth dilution test
Aspergillus niger [18] = experiment: Antifungal activity against Aspergillus niger at 100 ug/well after 48 hrs by agar well diffusion method; settings: read-out: DIZ
Staphylococcus aureus [19] = experiment: Antibacterial activity against Staphylococcus aureus at 50 ug/well after 24 hrs by agar well diffusion method; settings: for zone of inhibition at 50 µg/disc: read-out: DIZ
Penicillium chrysogenum [20] = experiment: Antifungal activity against Penicillium chrysogenum at 100 ug/well after 48 hrs by agar well diffusion method; settings: read-out: DIZ
Pseudomonas aeruginosa [21] = experiment: Antibacterial activity against Pseudomonas aeruginosa after 24 hrs
Klebsiella pneumoniae [22] = experiment: Antibacterial activity against Klebsiella pneumoniae after 24 hrs
Bacillus subtilis [23] = experiment: Antibacterial activity against Bacillus subtilis at 100 ug/well after 24 hrs by agar well diffusion method; settings: for zone of inhibition at 100 µg/disc: read-out: DIZ
Pseudomonas aeruginosa [24] = experiment: Antibacterial activity against Pseudomonas aeruginosa at 100 ug/well after 24 hrs by agar well diffusion method; settings: for zone of inhibition at 100 µg/disc: read-out: DIZ

| Compound | zone of inhibition at 50 µg/disc (Klebsiella pneumoniae [1]) [mm] | zone of inhibition at 50 µg/disc (Aspergillus niger [2]) [mm] | MBC (Bacillus subtilis [3]) [µg/mL] | zone of inhibition at 50 µg/disc (Pseudomonas aeruginosa [4]) [mm] | MIC (Aspergillus niger [5]) [µg/mL] | MIC (Staphylococcus aureus [6]) [µg/mL] | zone of inhibition at 50 µg/disc (Bacillus subtilis [7]) [mm] | MFC (Penicillium chrysogenum [8]) [µg/mL] | MIC (Pseudomonas aeruginosa [9]) [µg/mL] | zone of inhibition at 100 µg/disc (Staphylococcus aureus [10]) [mm] | MIC (Penicillium chrysogenum [11]) [µg/mL] | zone of inhibition at 100 µg/disc (Klebsiella pneumoniae [12]) [mm] | MIC (Klebsiella pneumoniae [13]) [µg/mL] | zone of inhibition at 50 µg/disc (Penicillium chrysogenum [16]) [mm] | MIC (Bacillus subtilis [17]) [µg/mL] | zone of inhibition at 100 µg/disc (Aspergillus niger [18]) [mm] | zone of inhibition at 50 µg/disc (Staphylococcus aureus [19]) [mm] | zone of inhibition at 100 µg/disc (Penicillium chrysogenum [20]) [mm] | zone of inhibition at 100 µg/disc (Bacillus subtilis [23]) [mm] | zone of inhibition at 100 µg/disc (Pseudomonas aeruginosa [24]) [mm] | further results |
| --- | --- | --- | --- | --- | --- | --- | --- | --- | --- | --- | --- | --- | --- | --- | --- | --- | --- | --- | --- | --- | --- |
| O=S(=O)(c1ccc(Cl)cc1)c1c(-c2ccc(Cl)cc2)nn(-c2ccccc2)c1-c1ccc(-c2c(S(=O)(=O)c3ccc(Cl)cc3)c(-c3ccc(Cl)cc3)nn2-c2ccccc2)cc1 | 25 | 34 | 200 (≈ 214 µM) | 20 | 50 (≈ 53.6 µM) | 50 (≈ 53.6 µM) | 32 | > 100 | 50 (≈ 53.6 µM) | 31 | 25 (≈ 26.8 µM) | 27 | 100 (≈ 107 µM) | 28 | 50 (≈ 53.6 µM) | 37 | 29 | 31 | 34 | 22 | MBC (Staphylococcus aureus [14]): > 200 µg/mL; MFC (Aspergillus niger [15]): > 200 µg/mL; MBC (Pseudomonas aeruginosa [21]): > 200 µg/mL; MBC (Klebsiella pneumoniae [22]): > 200 µg/mL |
| O=S(=O)(c1ccccc1)c1c(-c2ccc(Cl)cc2)noc1-c1ccc(-c2onc(-c3ccc(Cl)cc3)c2S(=O)(=O)c2ccccc2)cc1 | 28 | 29 | 50 (≈ 70.1 µM) | 24 | 50 (≈ 70.1 µM) | 50 (≈ 70.1 µM) | 35 | 100 (≈ 140 µM) | 50 (≈ 70.1 µM) | 33 | 25 (≈ 35 µM) | 30 | 100 (≈ 140 µM) | 34 | 25 (≈ 35 µM) | 31 | 31 | 36 | 37 | 26 | MBC (Staphylococcus aureus [14]): 200 µg/mL (≈ 280 µM); MFC (Aspergillus niger [15]): 200 µg/mL (≈ 280 µM); MBC (Pseudomonas aeruginosa [21]): 200 µg/mL (≈ 280 µM); MBC (Klebsiella pneumoniae [22]): > 200 µg/mL |
| CC(=O)N1CCN(c2ccc(OCC3COC(Cn4ccnc4)(c4ccc(Cl)cc4Cl)O3)cc2)CC1 (centres undefined) [KETOCONAZOLE] | – | 33 | – | – | 6.25 (≈ 11.8 µM) | – | – | – | – | – | 12.5 (≈ 23.5 µM) | – | – | 36 | – | 36 | – | 38 | – | – | – |
| O=C(N[C@H](CO)[C@H](O)c1ccc([N+](=O)[O-])cc1)C(Cl)Cl [CHLORAMPHENICOL] | 40 | – | – | 27 | – | 6.25 (≈ 19.3 µM) | 34 | – | 6.25 (≈ 19.3 µM) | 35 | – | 42 | 12.5 (≈ 38.7 µM) | – | 6.25 (≈ 19.3 µM) | – | 33 | – | 38 | 30 | – |
| Cc1ccc(S(=O)(=O)c2c(-c3ccc(Cl)cc3)noc2-c2ccc(-c3onc(-c4ccc(Cl)cc4)c3S(=O)(=O)c3ccc(C)cc3)cc2)cc1 | 26 | 28 | 100 (≈ 135 µM) | 22 | 50 (≈ 67.4 µM) | 50 (≈ 67.4 µM) | 33 | 100 (≈ 135 µM) | 50 (≈ 67.4 µM) | 32 | 25 (≈ 33.7 µM) | 28 | 100 (≈ 135 µM) | 32 | 25 (≈ 33.7 µM) | 30 | 30 | 34 | 36 | 24 | MBC (Staphylococcus aureus [14]): 200 µg/mL (≈ 270 µM); MFC (Aspergillus niger [15]): > 200 µg/mL; MBC (Pseudomonas aeruginosa [21]): > 200 µg/mL; MBC (Klebsiella pneumoniae [22]): > 200 µg/mL |
| COc1ccc(-c2nn(-c3ccccc3)c(-c3ccc(-c4c(S(=O)(=O)c5ccccc5)c(-c5ccc(OC)cc5)nn4-c4ccccc4)cc3)c2S(=O)(=O)c2ccccc2)cc1 | 15 | 20 | – | 12 | – | – | 20 | – | – | 19 | – | 16 | – | 23 | – | 22 | 17 | 25 | 24 | 14 | – |
| COc1ccc(-c2nn(-c3ccccc3)c(-c3ccc(-c4c(S(=O)(=O)c5ccc(Cl)cc5)c(-c5ccc(OC)cc5)nn4-c4ccccc4)cc3)c2S(=O)(=O)c2ccc(Cl)cc2)cc1 | 15 | 25 | – | 14 | – | – | 23 | – | – | 20 | – | 17 | – | 24 | – | 27 | 18 | 26 | 25 | 16 | – |
| Cc1ccc(S(=O)(=O)c2c(-c3ccc(Cl)cc3)nn(-c3ccccc3)c2-c2ccc(-c3c(S(=O)(=O)c4ccc(C)cc4)c(-c4ccc(Cl)cc4)nn3-c3ccccc3)cc2)cc1 | 21 | 22 | – | 15 | – | – | 28 | – | – | 26 | – | 23 | – | 26 | – | 26 | 24 | 29 | 30 | 18 | – |
| O=S(=O)(c1ccc(Cl)cc1)c1c(-c2ccc(Cl)cc2)noc1-c1ccc(-c2onc(-c3ccc(Cl)cc3)c2S(=O)(=O)c2ccc(Cl)cc2)cc1 | 32 | 30 | 25 (≈ 31.9 µM) | 25 | 12.5 (≈ 16 µM) | 12.5 (≈ 16 µM) | 35 | 50 (≈ 63.9 µM) | 12.5 (≈ 16 µM) | 34 | 25 (≈ 31.9 µM) | 34 | 25 (≈ 31.9 µM) | 35 | 12.5 (≈ 16 µM) | 33 | 32 | 37 | 38 | 27 | MBC (Staphylococcus aureus [14]): 50 µg/mL (≈ 63.9 µM); MFC (Aspergillus niger [15]): 100 µg/mL (≈ 128 µM); MBC (Pseudomonas aeruginosa [21]): 50 µg/mL (≈ 63.9 µM); MBC (Klebsiella pneumoniae [22]): 100 µg/mL (≈ 128 µM) |
| COc1ccc(-c2nn(-c3ccccc3)c(-c3ccc(-c4c(S(=O)(=O)c5ccc(C)cc5)c(-c5ccc(OC)cc5)nn4-c4ccccc4)cc3)c2S(=O)(=O)c2ccc(C)cc2)cc1 | 13 | 19 | – | 11 | – | – | 20 | – | – | 18 | – | 15 | – | 22 | – | 21 | 15 | 24 | 22 | 13 | – |
| COc1ccc(C2=NN(c3ccccc3)C(c3ccc(C4C(S(=O)(=O)c5ccccc5)C(c5ccc(OC)cc5)=NN4c4ccccc4)cc3)C2S(=O)(=O)c2ccccc2)cc1 (centres undefined) | – | 8 | – | – | – | – | – | – | – | – | – | – | – | 12 | – | 10 | – | 16 | – | – | diameter of the inhibition zone (DIZ) (Klebsiella pneumoniae [1]): inactive; diameter of the inhibition zone (DIZ) (Pseudomonas aeruginosa [4]): inactive; diameter of the inhibition zone (DIZ) (Bacillus subtilis [7]): inactive; diameter of the inhibition zone (DIZ) (Staphylococcus aureus [10]): inactive; diameter of the inhibition zone (DIZ) (Klebsiella pneumoniae [12]): inactive; diameter of the inhibition zone (DIZ) (Staphylococcus aureus [19]): inactive; diameter of the inhibition zone (DIZ) (Bacillus subtilis [23]): inactive; diameter of the inhibition zone (DIZ) (Pseudomonas aeruginosa [24]): inactive |
